Reference: ChEMBL document CHEMBL1201862, “PubChem BioAssay data set” (2004)
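Assay format: 96-well plates, 48-hour exposure. GI50 = concentration required for 50% inhibition of growth.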 The source made the active and inactive calls. Cut-off read from the data, not from the text of the source: active = GI50 up to about 1.1 µM and inactive = higher.

Tests used:
Assay in all cases: inhibition of tumour cell growth, NCI panel, 48 h
HOP-92 = system: HOP-92
IGROV-1 = system: IGROV-1
HL-60 = system: HL-60
NCI-H23 = system: NCI-H23
ACHN = system: ACHN
SF-539 = system: SF-539
KM-20L2 = system: KM-20L2
MOLT-4 = system: MOLT-4
K562 = system: K562
HCT-15 = system: HCT-15
SN12C = system: SN12C
SF-268 = system: SF-268
CCRF-CEM = system: CCRF-CEM
OVCAR-8 = system: OVCAR-8
SNB-78 = system: SNB-78
SW-620 = system: SW-620
HOP-62 = system: HOP-62
UACC-62 = system: UACC-62
HCT-116 = system: HCT-116
SNB-75 = system: SNB-75
M14 = system: M14
OVCAR-5 = system: OVCAR-5
A498 = system: A498
UO-31 = system: UO-31
DMS-114 = system: DMS-114
CAKI-1 = system: CAKI-1
NCI-H522 = system: NCI-H522
SF-295 = system: SF-295
DMS-273 = system: DMS-273
EKVX = system: EKVX
M19-MEL = system: M19-MEL
RPMI-8226 = system: RPMI-8226
LXFL 529 = system: LXFL 529
SNB-19 = system: SNB-19
HCC 2998 = system: HCC 2998
NCI-H460 = system: NCI-H460
A549 = system: A549
U-251 = system: U-251
HT-29 = system: HT-29
Malme-3M = system: Malme-3M
SK-OV-3 = system: SK-OV-3
RXF 393 = system: RXF 393
HOP-18 = system: HOP-18
UACC-257 = system: UACC-257
NCI-H226 = system: NCI-H226
KM12 = system: KM12
TK-10 = system: TK-10
SK-MEL-28 = system: SK-MEL-28
OVCAR-3 = system: OVCAR-3
SK-MEL-5 = system: SK-MEL-5
LOX IMVI = system: LOX IMVI
COLO 205 = system: COLO 205
OVCAR-4 = system: OVCAR-4
786-0 = system: 786-0
SK-MEL-2 = system: SK-MEL-2
SR = system: SR
XF498 = system: XF498
DLD-1 = system: DLD-1

`CCOc1ccccc1NC(=O)C(=O)CC(=O)c1c(C)[n+]([O-])c2ccccc2[n+]1[O-]` was tested, and the GI50 (HOP-92) was > 100 µM (inactive), the GI50 (IGROV-1) was > 100 µM (inactive) and the GI50 (HL-60) was > 100 µM (inactive). The GI50 (NCI-H23) was 65 µM (inactive), the GI50 (ACHN) was > 100 µM (inactive) and the GI50 (SF-539) was > 100 µM (inactive). The GI50 (KM-20L2) was 75.7 µM (inactive), the GI50 (MOLT-4) was > 100 µM (inactive) and the GI50 (K562) was > 100 µM (inactive). For the same compound, the GI50 (HCT-15) was 67.1 µM, the GI50 (SN12C) was > 100 µM (inactive) and the GI50 (SF-268) was > 100 µM (inactive). For the same compound, the GI50 (CCRF-CEM) was 52.8 µM (inactive), the GI50 (OVCAR-8) was > 100 µM (inactive) and the GI50 (SNB-78) was > 100 µM (inactive). The GI50 (SW-620) was > 100 µM (inactive), the GI50 (HOP-62) was > 100 µM (inactive) and the GI50 (UACC-62) was > 100 µM (inactive). The GI50 (HCT-116) was > 100 µM (inactive), the GI50 (SNB-75) was > 100 µM (inactive) and the GI50 (M14) was > 100 µM (inactive). The GI50 (OVCAR-5) was > 100 µM (inactive), the GI50 (A498) was > 100 µM (inactive) and the GI50 (UO-31) was > 100 µM (inactive). For the same compound, the GI50 (DMS-114) was > 100 µM (inactive), the GI50 (CAKI-1) was > 100 µM (inactive) and the GI50 (NCI-H522) was 84.5 µM (inactive). For the same compound, the GI50 (SF-295) was > 100 µM (inactive), the GI50 (DMS-273) was > 100 µM (inactive) and the GI50 (EKVX) was > 100 µM (inactive). The GI50 (M19-MEL) was 50.9 µM (inactive), the GI50 (RPMI-8226) was > 100 µM (inactive) and the GI50 (LXFL 529) was > 100 µM (inactive). The GI50 (SNB-19) was 69.2 µM (inactive), the GI50 (HCC 2998) was > 100 µM (inactive) and the GI50 (NCI-H460) was 81.7 µM (inactive). The GI50 (A549) was > 100 µM (inactive), the GI50 (U-251) was > 100 µM (inactive) and the GI50 (HT-29) was > 100 µM (inactive). The GI50 (Malme-3M) was > 100 µM (inactive), the GI50 (SK-OV-3) was > 100 µM (inactive) and the GI50 (RXF 393) was > 100 µM (inactive). The GI50 (HOP-18) was 46.5 µM (inactive), the GI50 (UACC-257) was > 100 µM (inactive) and the GI50 (NCI-H226) was > 100 µM (inactive). The GI50 (KM12) was 83.9 µM (inactive), the GI50 (TK-10) was > 100 µM (inactive) and the GI50 (SK-MEL-28) was > 100 µM (inactive). The GI50 (OVCAR-3) was 25.2 µM (inactive), the GI50 (SK-MEL-5) was 43.9 µM (inactive) and the GI50 (LOX IMVI) was 99.3 µM (inactive). For the same compound, the GI50 (COLO 205) was 35.2 µM (inactive), the GI50 (OVCAR-4) was > 100 µM (inactive) and the GI50 (786-0) was > 100 µM (inactive). For the same compound, the GI50 (SK-MEL-2) was > 100 µM (inactive).

With `O=c1c2cc(O)ccc2n2nnc3ccc(NCCNCCO)c1c32` the GI50 (HOP-92) was 2.06 µM (inactive), the GI50 (NCI-H23) was 5.92 µM (inactive) and the GI50 (SF-539) was 3.85 µM (inactive). For the same compound, the GI50 (HCT-15) was 49.1 µM, the GI50 (SF-268) was 1.59 µM (inactive) and the GI50 (OVCAR-8) was 1.86 µM (inactive). For the same compound, the GI50 (HCT-116) was 2.65 µM (inactive), the GI50 (UO-31) was 16.3 µM (inactive) and the GI50 (DMS-114) was 1.71 µM (inactive). The GI50 (CAKI-1) was 4.2 µM (inactive), the GI50 (SF-295) was 11.7 µM (inactive) and the GI50 (EKVX) was 14.5 µM (inactive). For the same compound, the GI50 (RPMI-8226) was 14.1 µM (inactive), the GI50 (LXFL 529) was 1.86 µM (inactive) and the GI50 (SNB-19) was 4.85 µM (inactive). For the same compound, the GI50 (U-251) was 1.82 µM (inactive), the GI50 (HT-29) was 6.62 µM (inactive) and the GI50 (SK-OV-3) was 5.4 µM (inactive). The GI50 (HOP-18) was 24.3 µM (inactive), the GI50 (NCI-H226) was 2.31 µM (inactive) and the GI50 (KM12) was 11.2 µM (inactive). The GI50 (LOX IMVI) was 1.71 µM (inactive), the GI50 (COLO 205) was 4.26 µM (inactive) and the GI50 (OVCAR-4) was 3.84 µM (inactive). For the same compound, the GI50 (786-0) was 3.55 µM (inactive).

In the case of `CC(=O)OCC1OC(N2C(=O)[C@@H](Oc3ccccc3)[C@H]2/C=C/c2ccccc2)C(OC(C)=O)C(OC(C)=O)C1OC(C)=O` (stereo not given in full), the GI50 (HOP-92) was 44.5 µM (inactive), the GI50 (IGROV-1) was > 100 µM (inactive) and the GI50 (HL-60) was > 100 µM (inactive). For the same compound, the GI50 (SR) was > 100 µM (inactive), the GI50 (NCI-H23) was > 100 µM (inactive) and the GI50 (ACHN) was > 100 µM (inactive). For the same compound, the GI50 (SF-539) was > 100 µM (inactive), the GI50 (KM-20L2) was > 100 µM (inactive) and the GI50 (MOLT-4) was > 100 µM (inactive). The GI50 (K562) was > 100 µM (inactive), the GI50 (HCT-15) was greater than 100 µM and the GI50 (SN12C) was > 100 µM (inactive). For the same compound, the GI50 (SF-268) was 72.4 µM (inactive), the GI50 (CCRF-CEM) was > 100 µM (inactive) and the GI50 (OVCAR-8) was > 100 µM (inactive). For the same compound, the GI50 (SNB-78) was > 100 µM (inactive), the GI50 (SW-620) was > 100 µM (inactive) and the GI50 (HOP-62) was 40.1 µM (inactive). For the same compound, the GI50 (UACC-62) was > 100 µM (inactive), the GI50 (HCT-116) was > 100 µM (inactive) and the GI50 (SNB-75) was 31.1 µM (inactive). For the same compound, the GI50 (M14) was > 100 µM (inactive), the GI50 (OVCAR-5) was > 100 µM (inactive) and the GI50 (A498) was 72.4 µM (inactive). The GI50 (UO-31) was > 100 µM (inactive), the GI50 (DMS-114) was > 100 µM (inactive) and the GI50 (XF498) was > 100 µM (inactive). The GI50 (NCI-H522) was > 100 µM (inactive), the GI50 (SF-295) was 53.6 µM (inactive) and the GI50 (DMS-273) was > 100 µM (inactive). The GI50 (EKVX) was > 100 µM (inactive), the GI50 (DLD-1) was > 100 µM (inactive) and the GI50 (M19-MEL) was > 100 µM (inactive). The GI50 (RPMI-8226) was > 100 µM (inactive), the GI50 (LXFL 529) was > 100 µM (inactive) and the GI50 (SNB-19) was 31.6 µM (inactive). The GI50 (HCC 2998) was > 100 µM (inactive), the GI50 (NCI-H460) was > 100 µM (inactive) and the GI50 (A549) was > 100 µM (inactive). The GI50 (U-251) was 58.9 µM (inactive), the GI50 (HT-29) was > 100 µM (inactive) and the GI50 (Malme-3M) was > 100 µM (inactive). For the same compound, the GI50 (SK-OV-3) was > 100 µM (inactive), the GI50 (RXF 393) was > 100 µM (inactive) and the GI50 (UACC-257) was > 100 µM (inactive). For the same compound, the GI50 (NCI-H226) was > 100 µM (inactive), the GI50 (TK-10) was > 100 µM (inactive) and the GI50 (SK-MEL-28) was > 100 µM (inactive). For the same compound, the GI50 (OVCAR-3) was > 100 µM (inactive), the GI50 (SK-MEL-5) was > 100 µM (inactive) and the GI50 (LOX IMVI) was > 100 µM (inactive). The GI50 (COLO 205) was > 100 µM (inactive), the GI50 (OVCAR-4) was > 100 µM (inactive) and the GI50 (786-0) was > 100 µM (inactive). For the same compound, the GI50 (SK-MEL-2) was > 100 µM (inactive).
